Article PMC11790763, “A Peptide Motif Covering Splice Site B in Neuroligin-1 Binds to Aβ and Acts as a Neprilysin Inhibitor” (Molecular Neurobiology, 2024)
Where a SMILES comes first, the peptide text is derived from it. Bridges are numbered along the chain shown (N, C = ends). Roman numbers before positions name the chains, in order. Where no end group is shown, it is not given here.

Tests used:
Aβ1-42 = biological target: T1, Aβ1-42 (Homo sapiens, UniProt P05067); experiment: Aβ1-42 aggregation assay (thioflavin T fluorescence); conditions: 75 μM Aβ1-42 + 10 μM peptide, 37 °C, 8 days, 50 mM Tris pH 7.4, ThT 5 μM, triplicates; slopes compared with Aβ alone
T1 construct: Aβ1-42, at a final concentration of 75 μM (pH 7.4); purchased Bachem AG (Bubendorf, Switzerland) or Schafer-N; host or cells: synthetic peptide
Protocol: Aβ1-42 was dissolved in sterile deionized water to a final concentration of 1 mM. Then, the peptide was subjected to a basic shock by adding 2 M NaOH to pH 12 followed by neutralization with 1 M HCl. Aβ1-42, at a final concentration of 75 μM (pH 7.4) either alone or in combination with NL1 (1 μM), neurolide (10 μM), or NLp7 (10 μM), was loaded in triplicates on 96-well plate. Immediately after mixing the samples, thioflavin T (5 μM, ThT; Sigma-Aldrich), dissolved in the aggregation buffer (50 mM Tris, pH 7.4), was added to wells and plate was incubated at 37 °C for 8 days. The formation of beta-amyloid aggregates was monitored first for 210 min and then every 24 h by recording changes in ThT fluorescence at excitation/emission (Ex/Em) = 440/482 nm.

Aβ1-40 = biological target: T2, Aβ1-40 (Homo sapiens, UniProt P05067); experiment: Competitive ELISA, binding to biotinylated Aβ1-40; conditions: Table 1, title prints Aβ1-42, text and method Aβ1-40, IC50 interpreted as KD
T2 construct: biotinylated Aβ1-40, at final concentration 400 nM; purchased Bachem AG (Bubendorf, Switzerland) or Schafer-N; host or cells: synthetic peptide
Protocol: NL1 and NL1-derived peptide binding to Aβ was measured by competitive ELISA using the shorter Aβ1-40 peptide with a slower polymerization constant, optimized for this binding assay. Recombinant NL1 (3.125 nM) was immobilized on a poly-sorb 96-well plate (NUNC, Roskilde, Denmark) using sodium bicarbonate buffer (pH 9.6), and left overnight at 4 °C, followed by washing with PBST buffer (PBS supplemented with 0.1% [vol/vol] Tween-20, pH 7.4). In separate tubes, biotinylated Aβ1-40, at final concentration 400 nM, was premixed with serially diluted NL1 or NL1-derived peptides for 30 min. A reversed version of Aβ (Aβ40-1) was used as the respective negative control (Supplementary Fig. 1). After preincubation, the samples were centrifuged at 20,000 × g for 10 min at 4 °C and 100 μl of the mixtures were transferred in triplicates onto the precoated ELISA plate. Plates were incubated at room temperature for 4 h, followed by washing and incubation with streptavidin-HRP conjugate (1:1000, 1 h; Dako, Glostrup, Denmark). The signal was developed with TMB ONE (KEM-EN-TEC, Denmark), and the reaction was terminated with 0.2 M H2SO4. Absorbance was measured at 450 nm on a Wallac VICTOR2 1420 Multilabel Counter (PerkinElmer, Hvidovre, Denmark). KD values were derived by sigmoidal dose–response (variable slope) fit of NL1 and neurolide dose–response curves after log transformation according to GraphPad Prism (version 6, GraphPad, San Diego, CA, USA). Obtained inhibitory concentration IC50 value was interpreted as KD value.

[1] = biological target: Recombinant rat neuroligin-1 (NL1), soluble extracellular domain (rat) (UniProt Q62765); experiment: SPR; Biacore 2000; about 2000 RU of NL1 immobilised on a CM4 chip by amine coupling; 25 °C; HBS-P (10 mM HEPES pH 7.4, 150 mM NaCl, 0.005% P20) with 3 mM CaCl2; 20 μl/min; 1:1 Langmuir model; apparent KD = kd/ka
[2] = biological target: T3, recombinant neprilysin (NEP) (Homo sapiens, UniProt P08473); experiment: Neprilysin activity assay with recombinant enzyme (SensoLyte 520); assay type: biochemical; conditions: peptide 5 μM, equimolar to neurolide; 5-FAM/QXL substrate, 2 h; four to five independent experiments
T3 construct: purchased Anaspec, Fremont, California, USA (SensoLyte 520 Neprilysin Activity Assay Kit)
Protocol: NEP activity was measured using the SensoLyte 520 Neprilysin Activity Assay Kit *Fluorimetric* (Anaspec, Fremont, California, USA) following the protocol provided by the manufacturer. Briefly, Aβ1-42 was dissolved in anhydrous DMSO to a stock concentration of 5 mM, followed by dilutions in assay buffer (100 μM, 50 μM, and 5 μM). Both NL1 (3 μM, 1 μM, 0.3 μM, 0.1 μM) and neurolide (100, 10, 5, and 1 μM) were dissolved in assay buffer. Randomly selected two additional NL1-derived peptides, NLp4, and NLp7 (5 μM, Table 1), were included in the analysis. The NEP solution (40 μl) was mixed with 10 μl of either NL1 or peptides and supplemented with 50 μl of NEP substrate (5-FAM/QXL), and the final mixture was incubated in black optical-bottom 96-well plate (Nunc, Rochester, New York, USA). In co-stimulation experiments, Aβ1-42, prepared as described above, was added to the solution in final concentrations either 0.5 μM or 5 μM. The fluorescence signal was recorded at Ex/Em = 485/535 nm every 20 min for 2 h. The data are presented as the relative activity of NEP alone.

brain-derived NEP = biological target: T4, brain-derived NEP (Mus musculus, UniProt Q61391); experiment: Neprilysin activity in NEP-enriched brain membrane fraction of WT mice; assay type: biochemical, mouse (C57Bl/6j); conditions: 40 μg protein, Thiorphan 100 nM
T4 construct: Clear supernatants were used as membrane-extracted fractions; from tissue; host or cells: adult mouse brain without cerebellum, Triton X-100-extracted membrane fraction
T4 sequence (Q61391 1-750): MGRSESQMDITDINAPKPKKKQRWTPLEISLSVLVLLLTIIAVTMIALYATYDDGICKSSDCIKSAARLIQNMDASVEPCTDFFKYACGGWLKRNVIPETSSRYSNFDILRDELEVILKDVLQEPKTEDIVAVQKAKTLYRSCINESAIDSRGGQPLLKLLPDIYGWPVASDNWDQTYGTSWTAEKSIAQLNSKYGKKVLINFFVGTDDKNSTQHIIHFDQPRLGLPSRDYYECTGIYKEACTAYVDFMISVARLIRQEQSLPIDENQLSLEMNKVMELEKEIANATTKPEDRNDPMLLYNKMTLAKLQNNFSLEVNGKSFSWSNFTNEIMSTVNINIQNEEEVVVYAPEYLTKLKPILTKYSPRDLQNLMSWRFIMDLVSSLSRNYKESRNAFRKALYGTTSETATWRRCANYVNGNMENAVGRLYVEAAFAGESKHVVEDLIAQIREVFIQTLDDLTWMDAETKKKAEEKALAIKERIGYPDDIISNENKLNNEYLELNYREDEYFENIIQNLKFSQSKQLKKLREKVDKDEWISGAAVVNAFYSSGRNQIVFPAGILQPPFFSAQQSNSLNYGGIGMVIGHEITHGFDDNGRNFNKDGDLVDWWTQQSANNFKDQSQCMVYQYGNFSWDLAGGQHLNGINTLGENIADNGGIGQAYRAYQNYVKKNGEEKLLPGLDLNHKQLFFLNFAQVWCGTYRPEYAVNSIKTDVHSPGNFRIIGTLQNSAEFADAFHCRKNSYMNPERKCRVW
Protocol: To measure NEP activity in brain tissue, whole brains without cerebellum were dissected from adult mice (C57Bl/6j or 5XFAD) and homogenized with a Teflon-glass homogenizer in five volumes (w/v) of ice-cold lysis buffer containing PBS (pH 7.4), 0.25 M sucrose and protease inhibitor cocktail (Complete™, EDTA-free, Roche Diagnostics, Indianapolis, IN). The homogenates were centrifuged at 9000 × g for 15 min at 4 °C. The supernatants were further centrifuged at 20,000 × g at 4 °C for 20 min. The resulting pellets were solubilized in resuspension buffer containing PBS (pH 7.4) and 1% Triton X-100 for 1 h on ice and again centrifuged at 20,000 × g at 4 °C for 20 min. Clear supernatants were used as membrane-extracted fractions. Protein concentrations of Triton-extracted membrane fractions were determined using the Pierce BCA Protein Assay kit (Thermo Fisher Scientific). The standard assay mixture consisted of membrane fraction containing 40 μg total protein diluted in 40 μl of dilution buffer, 10 μl of testing compound (NL1, neurolide or vehicle), and 50 μl of NEP substrate (5-FAM/QXL; Anaspec) in a total volume of 100 μl. The reaction was initiated by adding substrate to the assay mixture. […] Positive and negative controls were set up according to the manufacturer’s protocol (Anaspec). Fluorescence was measured at Ex/Em = 485/535 nm every 20 min for 2 h. The data were expressed as percentage of relative activity of neprilysin.

[3] = biological target: Biotinylated amyloid-β peptide 1-40 (Aβ1-40); experiment: ELISA; competitive ELISA: NL1 (3.125 nM) coated on the plate; biotinylated Aβ1-40 (400 nM; Aβ40-1 as negative control) premixed 30 min with serially diluted NL1 or NL1-derived peptides; 4 h at room temperature; streptavidin-HRP; IC50 interpreted as KD

T2 sequence (P05067 672-711): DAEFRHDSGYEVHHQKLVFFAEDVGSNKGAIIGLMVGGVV
T1 sequence (P05067 672-713): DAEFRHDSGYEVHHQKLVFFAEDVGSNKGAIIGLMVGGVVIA
T3 sequence (P08473 whole entry): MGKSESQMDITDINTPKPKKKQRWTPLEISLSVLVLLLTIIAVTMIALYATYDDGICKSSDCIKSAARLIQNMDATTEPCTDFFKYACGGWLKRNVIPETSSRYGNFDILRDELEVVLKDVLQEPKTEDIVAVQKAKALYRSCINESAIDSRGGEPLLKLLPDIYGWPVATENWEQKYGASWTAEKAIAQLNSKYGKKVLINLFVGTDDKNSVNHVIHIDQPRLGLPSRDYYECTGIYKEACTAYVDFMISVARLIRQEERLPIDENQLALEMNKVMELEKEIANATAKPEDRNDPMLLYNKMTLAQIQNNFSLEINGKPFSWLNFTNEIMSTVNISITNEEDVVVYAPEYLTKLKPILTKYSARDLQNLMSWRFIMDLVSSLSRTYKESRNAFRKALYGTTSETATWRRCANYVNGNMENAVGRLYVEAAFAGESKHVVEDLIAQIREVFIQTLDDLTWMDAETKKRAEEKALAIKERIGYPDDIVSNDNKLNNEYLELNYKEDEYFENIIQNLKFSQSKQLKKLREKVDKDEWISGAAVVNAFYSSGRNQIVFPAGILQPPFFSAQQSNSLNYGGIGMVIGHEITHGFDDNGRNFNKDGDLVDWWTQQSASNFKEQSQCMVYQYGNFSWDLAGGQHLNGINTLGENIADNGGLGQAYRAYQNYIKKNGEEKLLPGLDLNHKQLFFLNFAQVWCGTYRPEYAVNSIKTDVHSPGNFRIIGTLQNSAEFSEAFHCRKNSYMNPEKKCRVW
Recombinant rat neurexin-1β (NX1β), sequence (Q63373 47-391): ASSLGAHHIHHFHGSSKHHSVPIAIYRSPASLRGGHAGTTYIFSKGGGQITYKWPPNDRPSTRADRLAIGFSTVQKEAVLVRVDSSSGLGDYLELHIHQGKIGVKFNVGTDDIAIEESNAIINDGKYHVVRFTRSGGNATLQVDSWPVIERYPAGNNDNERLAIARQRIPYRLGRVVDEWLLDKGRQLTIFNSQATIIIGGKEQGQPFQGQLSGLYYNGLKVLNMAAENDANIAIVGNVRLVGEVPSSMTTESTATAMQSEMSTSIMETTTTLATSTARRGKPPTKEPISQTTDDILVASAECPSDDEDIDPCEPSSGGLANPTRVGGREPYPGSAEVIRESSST

CC[C@H](C)[C@H](N)C(=O)N[C@H](C(=O)N[C@H](C(=O)N[C@@H](CC(N)=O)C(=O)N[C@@H](Cc1ccc(O)cc1)C(=O)N[C@@H](CCCNC(=N)N)C(=O)N[C@@H](CC(C)C)C(=O)NCC(=O)NCCCC[C@H](NC(=O)CNC(=O)[C@H](CC(C)C)NC(=O)[C@H](CCCNC(=N)N)NC(=O)[C@H](Cc1ccc(O)cc1)NC(=O)[C@H](CC(N)=O)NC(=O)[C@@H](NC(=O)[C@@H](NC(=O)[C@@H](N)[C@@H](C)CC)[C@@H](C)O)C(C)C)C(=O)NCCCC[C@H](NC(=O)[C@H](CCCCNC(=O)CNC(=O)[C@H](CC(C)C)NC(=O)[C@H](CCCNC(=N)N)NC(=O)[C@H](Cc1ccc(O)cc1)NC(=O)[C@H](CC(N)=O)NC(=O)[C@@H](NC(=O)[C@@H](NC(=O)[C@@H](N)[C@@H](C)CC)[C@@H](C)O)C(C)C)NC(=O)CNC(=O)[C@H](CC(C)C)NC(=O)[C@H](CCCNC(=N)N)NC(=O)[C@H](Cc1ccc(O)cc1)NC(=O)[C@H](CC(N)=O)NC(=O)[C@@H](NC(=O)[C@@H](NC(=O)[C@@H](N)[C@@H](C)CC)[C@@H](C)O)C(C)C)C(N)=O)C(C)C)[C@@H](C)O [NLp2] (I: H-ITVNYRLGKK-NH2 / II: H-ITVNYRLGK / III: H-ITVNYRLG / IV: H-ITVNYRLG; amide I:9-IV:C, I:10-II:C, II:9-III:C; N-terminus and C-terminus assumed) was tested, and the “development of ThT fluorescence (Aβ aggregation)” value (Aβ1-42) was “had no effect”.

In the case of “SGGPKPVMYIHG [NLp1, NL1-derived peptide …]”, the “KD (binding affinities to Aβ1-42, as in the table title)” value (Aβ1-40) is reported as “No binding”.

ASFQPAKYA [NLp3, NL1-derived peptide …] was tested, and the “KD (binding affinities to Aβ1-42, as in the table title)” value (Aβ1-40) was “No binding”.

Molecule “Recombinant rat neurexin-1β (NX1β) (from UniProt Q63373 47-391) (natural protein)” has a Kd [1] of 6.64 nM.

With “ASDFDFAVSN [NLp5, NL1-derived peptide …]” the “KD (binding affinities to Aβ1-42, as in the table title)” value (Aβ1-40) was “No binding”.

With “AENIVDSDDG [NLp4, NL1-derived peptide …]” the “KD (binding affinities to Aβ1-42, as in the table title)” value (Aβ1-40) was “No binding” and the “activity of recombinant NEP” value [2] was “had no effect”.

With O=C(O)CNC(=O)C(CS)Cc1ccccc1 (stereo not shown) [Thiorphan, reference compound] the “activity of brain-derived NEP” value (brain-derived NEP) was “completely blocked”.

For Amyloid-β peptide 1-42 (Aβ1-42), the Kd [1] was 72 nM.

“ATADLHSNFGS [NLp8, NL1-derived peptide …]” was tested, and the “KD (binding affinities to Aβ1-42, as in the table title)” value (Aβ1-40) was “No binding”.

In the case of “SVPVTSAFPTAKQDDA [NLp7, NL1-derived peptide …]”, the “development of ThT fluorescence (Aβ aggregation)” value (Aβ1-42) is reported as “had no effect”, the “KD (binding affinities to Aβ1-42, as in the table title)” value (Aβ1-40) is reported as “No binding” and the “activity of recombinant NEP” value [2] is reported as “had no effect”.

For “AHTKPNRFEA [NLp6, NL1-derived peptide …]”, the “KD (binding affinities to Aβ1-42, as in the table title)” value (Aβ1-40) was “No binding”.

Work on SEGNRWSNSTKGLFQRA (also: tetramer: four copies coupled to a lysine backbone) [Neurolide, NL1-derived synthetic peptide (tetramer on a lysine backbone)] yielded a Kd [3] of 35.3 nM.

With ITVNYRLG (also: tetramer: four copies coupled to a lysine backbone) [NLp2, NL1-derived synthetic peptide (tetramer on a lysine backbone)] the Kd [3] was 676 nM.
